Where “and” joins values, the source holds several entries; their conditions need not be identical. Equal values may be shown once. Read-outs that look alike come from different tables or passages of the source. [ ]: non-standard residue; d: D form. Nle = CCCC[C@H](N)C(=O)O
Tests used:
in vitro [1] = settings: African green monkey
in vitro [2] = settings: human, Huh7 cell viability (%)
[3] = test system: SARS-CoV-2 (USA-WA1/2020); experiment: microbe, parasite or virus in culture; assay type: cell-based
in vitro [4] = settings: human, U-87 MG cell viability (%)

Compound	SARS-CoV-2 infection (%) ([3]; 0.625 μM)	SARS-CoV-2 infection (%) ([3]; 1.25 μM)	SARS-CoV-2 infection (%) ([3]; 5 μM)	SARS-CoV-2 infection (%) ([3]; 20 μM)	Cell viability (%) (Vero cells; 0.625 μM)	Cell viability (%) (Vero cells; 1.25 μM)	Cell viability (%) (Vero cells; 5 μM)	Cell viability (%) (Vero cells; 20 μM)	viability at 0.625 µM (in vitro [1]; Cell viability (%), 0.625 μM) [%]	viability at 1.25 µM (in vitro [1]; Cell viability (%), 1.25 μM) [%]	viability at 5 µM (in vitro [1]; Cell viability (%), 5 μM) [%]	viability at 20 µM (in vitro [1]; Cell viability (%), 20 μM) [%]	viability at 0.37 µM (in vitro [4]) [%]	viability at 3.33 µM (in vitro [4]) [%]	viability at 10 µM (in vitro [4]) [%]	viability at […] (in vitro [4])	further results
CN(C)C(=O)C(CCN1CCC(O)(c2ccc(Cl)cc2)CC1)(c1ccccc1)c1ccccc1 [Loperamide]																	CC50 (in vitro [1]): > 20 µM; viability at 0.123 µM (in vitro [2]): 92.4%; viability at 0.37 µM (in vitro [2]): 91.8%; viability at 3.333 µM (in vitro [2]): 88.9%; viability at 10 µM (in vitro [2]): 68.3%
CC(C)(C)c1cc(C=C(C#N)C#N)cc(C(C)(C)C)c1O [Tyrphos-tin A9]	101.12% and 121.35% and 124.72%	131.46% and 128.09% and 114.61%	107.87% and 117.98% and 101.12%	9.10% and 6.07% and 8.43%	112.22% and 113.82%	118.35% and 120.78%	96.34%	97.68% and 97.70%	107	111	96.3	91.5					
Penitrem A	91.01% and 104.49% and 97.75%	111.24% and 101.12% and 94.38%	117.98% and 128.09% and 111.24%	6.40% and 7.08% and 9.44%													
Ac-Leu-Leu-[Nle]-aldehyde				2.73% and 1.37% and 0.00%													CC50 (Vero cells): > 20 µM; Cell viability (%) (Vero cells; 0.25 μM): 91.85%; Cell viability (%) (Vero cells; 0.74 μM): 90.53%; Cell viability (%) (Vero cells; 6.67 μM): 98.46%
CC[C@@]1([C@@H]2O[C@@H]([C@H]3O[C@@](O)(CO)[C@H](C)C[C@@H]3C)C[C@@H]2C)CC[C@H]([C@]2(C)CC[C@]3(C[C@H](O)[C@@H](C)[C@@H]([C@@H](C)[C@@H](OC)[C@H](C)C(=O)O)O3)O2)O1 [Monen-sin]	74.16% and 84.27% and 91.01%	33.71% and 60.67% and 53.93%	0.0742% and 0.09% and 0.07%	0.0337%	106.13% and 103.45%	110.73% and 112.93%	95.75% and 98.96%	97.54% and 96.71%	103	113	100	98.8	82	78.7	79.7	79.2% and 83.3%	
Aurothioglucose																	CC50 (Vero cells): > 20 µM
CNc1ccc2oc(C[C@H]3O[C@@]4(CC[C@H]3C)O[C@H]([C@H](C)C(=O)c3ccc[nH]3)[C@H](C)C[C@H]4C)nc2c1C(=O)O [Calci-mycin]	17.53% and 16.18% and 16.52%	0.00337%	0.00337%	0.00337%	91.36% and 94.20%	98.44% and 96.45%	93.68% and 94.54%	81.29%	89.2	98.6	93.5	86.9	103	66.8	58.2	82.3% and 103%	
O=C(CCCN1CCC2(CC1)C(=O)NCN2c1ccccc1)c1ccc(F)cc1 [Spiperone]																	CC50 (in vitro [1]): > 20 µM; viability at 0.37 µM (in vitro [2]): 99.5%; viability at 3.33 µM (in vitro [2]): 79.2%; viability at 10 µM (in vitro [2]): 75.7%; viability at […] (in vitro [2]): 97% and 99.9%
CO[C@@H]1[C@@H](O[C@@H]2O[C@H](C)[C@@H](O[C@H]3C[C@@](C)(O)[C@@H](OC(=O)CC(C)C)[C@H](C)O3)[C@H](N(C)C)[C@H]2O)[C@@H](CC=O)C[C@@H](C)[C@@H](O)/C=C/C=C/C[C@@H](C)OC(=O)C[C@H]1OC(C)=O [Josa-mycin]				8.09% and 10.77%									90.4	91.6	100	91.6% and 95.3%	SARS-CoV-2 infection (%) [3]: 107.69% and 101.94%; SARS-CoV-2 infection (%) ([3]; 2.22 μM): 48.50% and 53.93%; SARS-CoV-2 infection (%) ([3]; 6.67 μM): 16.19% and 21.54%; Cell viability (%) (Vero cells; 2.22 μM): 93.52% and 91.16%; Cell viability (%) (Vero cells; 6.67 μM): 93.20% and 88.03%; viability at 0.247 µM (in vitro [1]; Cell viability (%)): 102%; viability at 20 µM (in vitro [1]; Cell viability (%)): 89.7%; viability at 2.22 µM (in vitro [1]; Cell viability (%), 2.22 μM): 96.9%; viability at 6.67 µM (in vitro [1]; Cell viability (%), 6.67 μM): 93%
CN(C)C(=O)C(CCN1CCC(O)(c2ccc(Cl)cc2)CC1)(c1ccccc1)c1ccccc1 [Lopera-mide]													98.7	101	97.5	100% and 98.5%	Cell viability (%) (Vero cells; African green monkey, 20 µM): 99.64%; viability at 0.625 µM (in vitro [1]; Cell viability (%)): 115%; viability at 1.25 µM (in vitro [1]; Cell viability (%)): 121%; viability at 5 µM (in vitro [1]; Cell viability (%)): 105%; viability at 20 µM (in vitro [1]; Cell viability (%)): 98.5%
O[C@H]1[C@H]2c3cc4c(cc3CN3CCC(=C[C@@H]1O)[C@H]23)OCO4 [Lyco-rine]	7.08% and 5.06% and 8.76%	0.34% and 0.40% and 0.24%	0.00337%	0.00337%	98.69%	103.60% and 104.02%	84.99% and 87.96%	88.99% and 91.05%	93.8	97.9	83	83					
COc1ccc2cc1Oc1ccc(cc1)C[C@H]1c3cc(c(OC)cc3CCN1C)Oc1c(OC)c(OC)cc3c1[C@H](C2)N(C)CC3 [Tetran-drine]	107.87% and 117.98% and 101.12%	53.93% and 104.49% and 87.64%	0.61% and 0.84% and 0.88%	0.00337%	99.78%	105.40% and 105.65%	86.02% and 86.44%	48.98% and 79.18% and 56.10%	94.4	101	83.6		101	101	98.9	105% and 97.8%	
CC(C)(C)c1cc(/C=C(\C#N)C(N)=S)cc(C(C)(C)C)c1O [Tyrphos-tin AG 879]	47.19% and 30.34% and 33.71%	7.75% and 5.73% and 5.06%	0.40% and 0.44% and 0.27%	0.00337%	83.52% and 84.00%	88.30% and 88.47%	78.46% and 79.21%	71.26% and 69.85%	85.5	87.2	78.7	71					viability at 0.25 µM (in vitro [4]): 96.7%; viability at 0.74 µM (in vitro [4]): 85%; viability at 2.22 µM (in vitro [4]): 85.2%; viability at 6.67 µM (in vitro [4]): 78.3%; viability at 20 µM (in vitro [4]): 70.1%
CO[C@@H]1[C@@H](O[C@@H]2O[C@H](C)[C@@H](O[C@H]3C[C@@](C)(O)[C@@H](OC(=O)CC(C)C)[C@H](C)O3)[C@H](N(C)C)[C@H]2O)[C@@H](CC=O)C[C@@H](C)[C@@H](O)/C=C/C=C/C[C@@H](C)OC(=O)C[C@H]1OC(C)=O [Josamycin]																	EC50 ([3]; Severe acute respiratory syndrome coronavirus 2, Vero, 24 h, read-out: SARS-CoV-2 EC50): 2400 nM; CC50 (in vitro [1]): > 20 µM; viability at 0.37 µM (in vitro [2]): 94.1%; viability at 3.33 µM (in vitro [2]): 97.2%; viability at 10 µM (in vitro [2]): 98.2%; viability at […] (in vitro [2]): 96.6% and 93.2%
[N-]=[N+]=CC(=O)OC[C@H](N)C(=O)O [Aza-serine]				0.00%				91.48% and 89.75%				87.1		94.5	84		SARS-CoV-2 infection (%) ([3]; 0.2469 μM): 107.69% and 86.64%; SARS-CoV-2 infection (%) ([3]; 2.2222 μM): 7.01% and 8.09%; SARS-CoV-2 infection (%) ([3]; 6.6667 μM): 2.70% and 1.62%; Cell viability (%) (Vero cells; 0.2469 μM): 103.32%; Cell viability (%) (Vero cells; 2.2222 μM): 96.19% and 95.62%; Cell viability (%) (Vero cells; 6.6667 μM): 94.50% and 92.95%; viability at 0.2469 µM (in vitro [1]; Cell viability (%), 0.2469 μM): 87.9%; viability at 2.2222 µM (in vitro [1]; Cell viability (%), 2.2222 μM): 89.7%; viability at 6.6667 µM (in vitro [1]; Cell viability (%), 6.6667 μM): 92.2%
O=C1NCN(c2ccccc2)C12CCN(CCCC(c1ccc(F)cc1)c1ccc(F)cc1)CC2 [Fluspiri-lene]	121.35% and 117.98% and 101.12%	111.24% and 114.61% and 104.49%	114.61% and 94.38% and 111.24%	3.37% and 2.70% and 4.04%	103.85% and 102.73%	105.07% and 105.49%	94.12% and 91.52%	83.60% and 85.38%	105	108	94	85.1	97	102	93.8	97.8% and 97.9%	
O=C(CCCN1CCC2(CC1)C(=O)NCN2c1ccccc1)c1ccc(F)cc1 [Spipe-rone]	124.72% and 114.61% and 131.46%	107.87% and 117.98% and 101.12%	15.17% and 17.19% and 12.81%	0.47% and 0.20% and 0.30%	94.16% and 92.89%	101.11%	96.86% and 95.76%	101.04%	91.9	99.9	94.3	97.4	99.2	101	97	99.5% and 99.9%	
CC(C)(C)NCC(O)c1ccc(O)c(CO)c1 (stereo not shown) [Salbuta-mol]	85.71% and 108.79% and 115.38%	128.57% and 98.90%	92.31% and 118.68% and 115.38%	105.49% and 89.01%													
